Source: patent US10473647B1, “Peptides for use in treatment and diagnosis of type 1 diabetes” (ImmusanT, Inc., priority 2014, dated 2019)
Non-standard residues stand in square brackets, D forms with d. pGlu = O=C1CC[C@@H](C(=O)O)N1

Tests used:
Type in all cases: cell-based, human
[1] = test system: whole blood from subjects with T1D and Celiac disease; assay: Whole blood cytokine release assay, IP-10 (MAGPIX), Example 1; settings: for IP-10 fold-change (GAD65 peptides): individual 17mer 20 μg/mL, blood 6 days after commencing oral gluten challenge; for Whole blood IP-10 release / Whole blood IP-10 release, fold-change over medium only: 10 uM
[2] = test system: whole blood from subjects with T1D and Celiac disease; assay: Whole blood cytokine release assay, IL-2 (MAGPIX), Example 1; settings: for IL-2 fold-change (GAD65 peptides): individual 17mer 20 μg/mL, blood 6 days after commencing oral gluten challenge; for Whole blood IL-2 release / Whole blood IL-2 release, fold-change over medium only: 10 uM
[3] = test system: whole blood from subjects with T1D and Celiac disease; assay: Whole blood cytokine release assay, IFN-γ (MAGPIX), Example 1; settings: for IFN-g fold-change (GAD65 peptides): individual 17mer 20 μg/mL, blood 6 days after commencing oral gluten challenge; for Whole blood IFNg release / Whole blood IFNg release, fold-change over medium only: 10 uM
[4] = subject 1, day 0 since oral challenge
[5] = subject 1, day 6 since oral challenge
[6] = subject 2, day 0 since oral challenge
[7] = subject 2, day 6 since oral challenge
[8] = subject 6, day 0 since oral challenge
[9] = subject 6, day 6 since oral challenge
[10] = subject 7, day 0 since oral challenge
[11] = subject 7, day 6 since oral challenge

62 (KTGIVSSKIIKLFFRLQ) [compound 62]
IP-10 fold-change (GAD65 peptides) ([1]; Subject 1): 1.15 fold | IP-10 fold-change (GAD65 peptides) ([1]; Subject 2): 1.32 fold | IP-10 fold-change (GAD65 peptides) ([1]; Subject 6): 4.16 fold | IP-10 fold-change (GAD65 peptides) ([1]; Subject 7): 1.25 fold | IL-2 fold-change (GAD65 peptides) ([2]; Subject 1): 1.00 fold | IL-2 fold-change (GAD65 peptides) ([2]; Subject 2): 1.00 fold | IL-2 fold-change (GAD65 peptides) ([2]; Subject 6): 1.00 fold | IL-2 fold-change (GAD65 peptides) ([2]; Subject 7): 10.36 fold | IFN-g fold-change (GAD65 peptides) ([3]; Subject 1): 0.55 fold | IFN-g fold-change (GAD65 peptides) ([3]; Subject 2): 0.67 fold | IFN-g fold-change (GAD65 peptides) ([3]; Subject 6): 1.11 fold | IFN-g fold-change (GAD65 peptides) ([3]; Subject 7): 2.45 fold

11 (FNQLSTGLDMVGLAADW) [compound 11]
IP-10 fold-change (GAD65 peptides) ([1]; Subject 1): 23.55 fold | IP-10 fold-change (GAD65 peptides) ([1]; Subject 2): 5.90 fold | IP-10 fold-change (GAD65 peptides) ([1]; Subject 6): 57.27 fold | IP-10 fold-change (GAD65 peptides) ([1]; Subject 7): 15.66 fold | IL-2 fold-change (GAD65 peptides) ([2]; Subject 1): 1.00 fold | IL-2 fold-change (GAD65 peptides) ([2]; Subject 2): 1.00 fold | IL-2 fold-change (GAD65 peptides) ([2]; Subject 6): 1.28 fold | IL-2 fold-change (GAD65 peptides) ([2]; Subject 7): 1.37 fold | IFN-g fold-change (GAD65 peptides) ([3]; Subject 1): 0.94 fold | IFN-g fold-change (GAD65 peptides) ([3]; Subject 2): 1.15 fold | IFN-g fold-change (GAD65 peptides) ([3]; Subject 6): 0.81 fold | IFN-g fold-change (GAD65 peptides) ([3]; Subject 7): 1.05 fold

60 (KYKIWMHVDAAWGGGLL) [compound 60]
IP-10 fold-change (GAD65 peptides) ([1]; Subject 1): 2.13 fold | IP-10 fold-change (GAD65 peptides) ([1]; Subject 2): 1.35 fold | IP-10 fold-change (GAD65 peptides) ([1]; Subject 6): 2.07 fold | IP-10 fold-change (GAD65 peptides) ([1]; Subject 7): 2.20 fold | IL-2 fold-change (GAD65 peptides) ([2]; Subject 1): 1.00 fold | IL-2 fold-change (GAD65 peptides) ([2]; Subject 2): 1.00 fold | IL-2 fold-change (GAD65 peptides) ([2]; Subject 6): 1.80 fold | IL-2 fold-change (GAD65 peptides) ([2]; Subject 7): 0.87 fold | IFN-g fold-change (GAD65 peptides) ([3]; Subject 1): 0.69 fold | IFN-g fold-change (GAD65 peptides) ([3]; Subject 2): 0.93 fold | IFN-g fold-change (GAD65 peptides) ([3]; Subject 6): 1.24 fold | IFN-g fold-change (GAD65 peptides) ([3]; Subject 7): 0.75 fold

(pE)LQPFPQPELPYPQPQ-NH2 ([pGlu]LQPFPQPELPYPQPQ-NH2; SMILES CC(C)C[C@H](NC(=O)[C@@H]1CCC(=O)N1)C(=O)N[C@@H](CCC(N)=O)C(=O)N1CCC[C@H]1C(=O)N[C@@H](Cc1ccccc1)C(=O)N1CCC[C@H]1C(=O)N[C@@H](CCC(N)=O)C(=O)N1CCC[C@H]1C(=O)N[C@@H](CCC(=O)O)C(=O)N[C@@H](CC(C)C)C(=O)N1CCC[C@H]1C(=O)N[C@@H](Cc1ccc(O)cc1)C(=O)N1CCC[C@H]1C(=O)N[C@@H](CCC(N)=O)C(=O)N1CCC[C@H]1C(=O)N[C@@H](CCC(N)=O)C(N)=O) [SEQ ID NO: 44, gluten peptide, reference compound]
Whole blood IP-10 release [1, 4]: 201 pg/mL | Whole blood IP-10 release, fold-change over medium only [1, 4]: 0.76 | Whole blood IP-10 release [1, 5]: 384 pg/mL | Whole blood IP-10 release, fold-change over medium only [1, 5]: 1.15 | Whole blood IP-10 release [1, 6]: 320 pg/mL | Whole blood IP-10 release, fold-change over medium only [1, 6]: 1.20 | Whole blood IP-10 release [1, 7]: 1844 pg/mL | Whole blood IP-10 release, fold-change over medium only [1, 7]: 5.90 | Whole blood IP-10 release [1, 8]: 1616 pg/mL | Whole blood IP-10 release, fold-change over medium only [1, 8]: 5.83 | Whole blood IP-10 release [1, 9]: 10000 pg/mL | Whole blood IP-10 release, fold-change over medium only [1, 9]: 49.76 | Whole blood IP-10 release [1, 10]: 977 pg/mL | Whole blood IP-10 release, fold-change over medium only [1, 10]: 1.32 | Whole blood IP-10 release [1, 11]: 3293 pg/mL | Whole blood IP-10 release, fold-change over medium only [1, 11]: 3.69 | Whole blood IL-2 release [2, 4]: 3.2 pg/mL | Whole blood IL-2 release, fold-change over medium only [2, 4]: 1.00 | Whole blood IL-2 release [2, 5]: 3.2 pg/mL | Whole blood IL-2 release, fold-change over medium only [2, 5]: 1.00 | Whole blood IL-2 release [2, 6]: 3.2 pg/mL | Whole blood IL-2 release, fold-change over medium only [2, 6]: 1.00 | Whole blood IL-2 release [2, 7]: 12.2 pg/mL | Whole blood IL-2 release, fold-change over medium only [2, 7]: 3.82 | Whole blood IL-2 release [2, 8]: 12.5 pg/mL | Whole blood IL-2 release, fold-change over medium only [2, 8]: 2.52 | Whole blood IL-2 release [2, 9]: 88.5 pg/mL | Whole blood IL-2 release, fold-change over medium only [2, 9]: 20.88 | Whole blood IL-2 release [2, 10]: 144.4 pg/mL | Whole blood IL-2 release, fold-change over medium only [2, 10]: 2.30 | Whole blood IL-2 release [2, 11]: 71.2 pg/mL | Whole blood IL-2 release, fold-change over medium only [2, 11]: 1.69 | Whole blood IFNg release [3, 4]: 39 pg/mL | Whole blood IFNg release, fold-change over medium only [3, 4]: 0.71 | Whole blood IFNg release [3, 5]: 55 pg/mL | Whole blood IFNg release, fold-change over medium only [3, 5]: 0.84 | Whole blood IFNg release [3, 6]: 4.1 pg/mL | Whole blood IFNg release, fold-change over medium only [3, 6]: 1.06 | Whole blood IFNg release [3, 7]: 13.9 pg/mL | Whole blood IFNg release, fold-change over medium only [3, 7]: 2.85 | Whole blood IFNg release [3, 8]: 102 pg/mL | Whole blood IFNg release, fold-change over medium only [3, 8]: 1.05 | Whole blood IFNg release [3, 9]: 200 pg/mL | Whole blood IFNg release, fold-change over medium only [3, 9]: 2.03 | Whole blood IFNg release [3, 10]: 407 pg/mL | Whole blood IFNg release, fold-change over medium only [3, 10]: 1.71 | Whole blood IFNg release [3, 11]: 194 pg/mL | Whole blood IFNg release, fold-change over medium only [3, 11]: 1.29

63 (AFLQDVMNILLEYVVKS) [compound 63]
IP-10 fold-change (GAD65 peptides) ([1]; Subject 1): 3.00 fold | IP-10 fold-change (GAD65 peptides) ([1]; Subject 2): 1.06 fold | IP-10 fold-change (GAD65 peptides) ([1]; Subject 6): 2.83 fold | IP-10 fold-change (GAD65 peptides) ([1]; Subject 7): 1.74 fold | IL-2 fold-change (GAD65 peptides) ([2]; Subject 1): 1.00 fold | IL-2 fold-change (GAD65 peptides) ([2]; Subject 2): 1.00 fold | IL-2 fold-change (GAD65 peptides) ([2]; Subject 6): 0.97 fold | IL-2 fold-change (GAD65 peptides) ([2]; Subject 7): 1.54 fold | IFN-g fold-change (GAD65 peptides) ([3]; Subject 1): 0.97 fold | IFN-g fold-change (GAD65 peptides) ([3]; Subject 2): 0.62 fold | IFN-g fold-change (GAD65 peptides) ([3]; Subject 6): 1.00 fold | IFN-g fold-change (GAD65 peptides) ([3]; Subject 7): 0.93 fold
